In PMC6520918, “Antiproliferative Effects of Hop-derived Prenylflavonoids and Their Influence on the Efficacy of Oxaliplatine, 5-fluorouracil and Irinotecan in Human ColorectalC Cells” (Nutrients, 2019):

Assays:
[1] = system: SW620 cells; experiment: Neutral red uptake (NRU) cell viability assay, 72 h; assay type: cell-based, human
From the text: (§1) The prenylflavonoids and NAR were pre-dissolved in DMSO, while 5-FU, IRT and OxPt were pre-dissolved in distilled water. […] During screening for antiproliferative effects, SW480, SW620, and CaCo-2 were exposed to various concentrations of individual compounds in culture medium: XH, IXH, 6-PN and 8-PN (1–100 μmol/L), NAR (1–200 µmol/L), 5-FU and IRT (0.1–100 µmol/L), and OxPt (0.1–25 µmol/L). The cells cultured in medium with 0.1% DMSO or 0.2% DMSO (for 8-PN only) were used as untreated control samples. In the case of OxPt, the untreated control sample contained cells cultured in medium only. The cells treated with 10% DMSO served as a positive control. Neutral red uptake (NRU) assay was used to determine the number of viable cells after 72 h of exposition. The effect of prenylflavonoids and NAR on 5-FU, IRT or OxPt efficacy was evaluated using CalcuSyn (ver. 1.1) software.
(§2) In the NRU assay, the cells were cultured in 96-well plates (SW480 and SW620: 2500 cells/well; CaCo-2 cells: 200 cells/well) and exposed to the tested compounds for 72 h. Thereafter, the medium was removed and 100 μL of neutral red-containing medium was added into each well and the plates were incubated at 37 °C for an additional 3 h. Then the cells were washed with 100 μL of PBS and fixed in a solution of 0.5% formaldehyde/1% calcium chloride for 15 minutes. The neutral red dye was extracted from the viable cells with a solvent (50% ethanol/1% acetic acid) by shaking for 30 min at room temperature. The absorbance of solubilized dye was measured using the spectrophotometer Infinite M200 (Tecan, Männedorf, Switzerland) at 540 nm. Each sample was assayed in six parallels and three independent experiments were performed. The viabilities of treated cells were expressed as a percentage of untreated controls (100%).
(§3) All calculations were done using Microsoft Excel and GraphPad Prism 7.03 (GraphPad Software, La Jolla, CA, USA). All values were expressed as mean ± S.D. of a given number of experiments. Statistical significance (evaluated using a one-way ANOVA with Dunett’s test) was acceptable to a level of p < 0.05. The concentration inducing a 50% decrease of cell viability as compared to control (IC50) was calculated using GraphPad Prism 7.03—nonlinear regression.

[2] = system: SW480 cells; experiment: as above; assay type: cell-based, human; conditions: SW480, 72 h of exposition
From the text: as §1, §2, §3

[3] = system: caspase-8 in SW620 cells; experiment: Caspase-Glo assay, initiator caspase-8 activity; assay type: cell-based, human
Procedure: (§4) The activities of initiator caspases-8 and -9 and effector caspases-3/7 were assayed using Caspase-Glo Assays (Promega, Madison, USA). The SW620 cells (seeded in a […]) were cultivated in 12-well plates. […] The untreated control cells were incubated in medium containing only 0.1% DMSO. The lysates were collected into microtubes. Caspase-8, Caspase-9 and Caspases-3/7 reagents were prepared according to the manufacturer’s instructions. The lysates (25 μL in each well) were transferred into a white-walled 384-well-plate for the luminometer, at which point 25 μL of Caspase-8 or Caspase-9 or Caspases-3/7 reagents were added to each well. The plate was gently mixed for 30 seconds and then incubated for 30 minutes at room temperature. The luminescence was measured using the luminometer Infinite M200 (Tecan, Männedorf, Switzerland).
(§5) In order to determine whether the observed antiproliferative activity of the prenylflavonoids and naringenin could be explained at least in part by the induction of apoptosis, the activities of initiator (caspase-8 and caspase-9) as well as effector caspases (caspases-3/7) were assessed in the SW620 cells, which were exposed to the studied compounds for 4, 8, and 24 h, with the activities of the caspases measured using a luminescence assay.
(§6) Further, we decided to determine the influence of combinations of the studied flavonoids with cytostatics on ROS formation and the activity of caspases in SW620 cells. Combination effects of flavonoids and cytostatics were investigated at equipotent concentrations of the IC50 values for each compound. ROS production was monitored using a DCFH-DA assay at several time points (0.5, 1, 4, 8, and 24 h) during a 24-hour incubation. The activities of caspases-8, -9, and -3/7 were assessed using a luminescence assay kit at 4, 8, and 24 h of incubation.

[4] = system: caspases-3/7 in SW620 cells; experiment: Caspase-Glo assay, effector caspases-3/7 activity; assay type: cell-based, human; conditions: for Caspase-3/7 activity, combination with 5-FU / Caspase-3/7 activity, combination with OxPt / Caspase-3/7 activity, combination with IRT: SW620, 24-hour incubation, compared to cytostatic alone; for Induction of caspases-3/7 activity: SW620, compound at IC50, 24-h exposure
Procedure: as §4, §5, §6

[5] = system: proliferating CaCo-2 cells; experiment: Neutral red uptake (NRU) cell viability assay, 72 h; assay type: cell-based; conditions: Homo sapiens, CaCo-2 proliferating, 72 h of exposition
Procedure: (§7) The CaCo-2 cell line was cultured in EMEM medium supplemented with 10% heat-inactivated FBS, 1% non-essential amino acids, 1% glutamine, and 0.5% penicillin/streptomycin. The cells were grown in 96-well plates for 3 (proliferating cells) and 21 (differentiated cells) days in a humidified atmosphere containing 5% CO2 at 37 °C and subcultured every 3 days.
as §1, §2, §3

[6] = system: differentiated CaCo-2 cells; experiment: as above; assay type: cell-based; conditions: Homo sapiens, CaCo-2 differentiated, 72 h of exposition
Procedure: as §7, §1, §2, §3

[7] = system: SW620 cells; experiment: Cellular ROS formation (H2DCF-DA oxidation); assay type: cell-based, human; conditions: for ROS production vs control: SW620, compound alone at its IC50, 0.5-24 h incubation
Procedure: To assess ROS generation in SW620 cells, a measurement of 2′,7′-dichlorodihydrofluorescein-diacetate (H2DCF-DA) oxidation was used. Cells (seeded in a 96-well plate at a density of 2500 cells/well) were washed with PBS buffer and incubated with 100 μL of 5 μM H2DCF-DA in Hank’s balanced salt solution (HBSS). […] Finally, fluorescence intensity was measured at the excitation and emission wavelengths of 485 nm/525 nm for 50 min at 37 °C using the microplate reader Infinite M200 (Tecan, Männedorf, Switzerland). The cells incubated in HBSS with DMSO only (as a solvent) were used as untreated control samples, while those incubated in the presence of 3% H2O2 were used as a positive control.
As is generally accepted, cancer cells generate more ROS than do normal cells and at the same time, they are sensitive to the effect of agents which augment oxidative stress and thus push these stressed cells beyond their limit. Therefore, the pro-oxidative effect of prenylflavonoids and NAR was tested in the SW620 cells in order to elucidate the observed antiproliferative effects of these compounds. […] ROS production was measured in the SW620 cells incubated with prenylflavonoids or NAR at a concentration equal to their IC50 using a DCFH-DA assay. ROS production was monitored during 24-hour incubation at several time points (0.5, 1, 4, 8, and 24 h).
as §6

[8] = system: caspase-9 in SW620 cells; experiment: Caspase-Glo assay, initiator caspase-9 activity; assay type: cell-based, human
Procedure: as §4, §5, §6

[9] = system: colorectal cancer cell lines SW480, SW620 and CaCo-2; experiment: Antiproliferative effect (NRU assay) across colorectal cancer cell lines; assay type: cell-based; conditions: Homo sapiens; proliferating colon cancer cells (SW480, SW620, CaCo-2), 72 h; read-out: IC50 range over cell lines
From the text: as §1, with “Neutral red uptake (NRU) assay was used to determine the number of viable cells after 72 h of exposition.” left out
In the NRU assay, the cells were cultured in 96-well plates (SW480 and SW620: 2500 cells/well; CaCo-2 cells: 200 cells/well) and exposed to the tested compounds for 72 h. […] The absorbance of solubilized dye was measured using the spectrophotometer Infinite M200 (Tecan, Männedorf, Switzerland) at 540 nm. […] The viabilities of treated cells were expressed as a percentage of untreated controls (100%).
All calculations were done using Microsoft Excel and GraphPad Prism 7.03 (GraphPad Software, La Jolla, CA, USA). All values were expressed as mean ± S.D. of a given number of experiments. […]

[10] = Homo sapiens, SW-620, SW620, 72 h of exposition
[11] = SW620, 4-h incubation, compared to cytostatic alone
[12] = SW620, 4-hour incubation, compared to cytostatic alone
[13] = SW620, combination with 5-FU, OxPt or IRT

Row | IC50 [1, 10] | IC50 ([2]; Homo sapiens) | IC50 [5] | IC50 [6] | SMILES | Caspase-3/7 activity, combination with 5-FU [4] | ROS production vs control [7] | also measured
1 | 34.9 µM | 22.6 µM | – | – | O=c1[nH]cc(F)c(=O)[nH]1 [5-FU, 5-fluorouracil] | – | – | –
2 | 24.9 µM | 56.3 µM | 48.9 µM | > 100 µM | CC(C)=CCc1c(O)cc(O)c2c1O[C@H](c1ccc(O)cc1)CC2=O [8-PN, 8-prenylnaringenin] | marked increase | initially elevated ROS levels in cells and then surprisingly displayed a strong antioxidant effect at the later intervals | Caspase-8 activity, combination with IRT [3, 11]: significantly increased; Caspase-8 activity, combination with OxPt [3, 11]: significantly increased; Caspase-3/7 activity, combination with OxPt [4]: marked increase; Induction of caspases-3/7 activity ([4]; vs untreated control): 44.7%; Caspase-9 activity, combination with IRT [8, 12]: more potent than the respective cytostatics alone; Caspase-9 activity, combination with OxPt [8, 12]: more potent than the respective cytostatics alone
3 | 7.3 µM | 3.6 µM | 6.2 µM | 39.3 µM | COc1cc(O)c(CC=C(C)C)c(O)c1C(=O)/C=C/c1ccc(O)cc1 [XH, Xanthohumol] | marked increase | strong pro-oxidative effect within the entire 24-hour incubation | IC50 [9]: 3.6 to 7.3 µM; Caspase-3/7 activity, combination with IRT [4]: marked increase
4 | 25.4 µM | 1.7 µM | – | – | CCc1c2c(nc3ccc(OC(=O)N4CCC(N5CCCCC5)CC4)cc13)-c1cc3c(c(=O)n1C2)COC(=O)[C@]3(O)CC [IRT, irinotecan] | – | – | –
5 | > 200 µM | > 200 µM | – | – | O=C1C[C@@H](c2ccc(O)cc2)Oc2cc(O)cc(O)c21 [NAR, naringenin, reference compound] | – | only a mild pro-oxidative effect | Caspase-8 activity, combined with all the cytostatics [3, 13]: marked induction; Suppression of effector caspases (3/7) activity, combined with all the cytostatics ([4]; SW620, combination with 5-FU, OxPt or IRT, all time intervals): up to 61.4%; Inhibition of caspases-3/7 ([4]; SW620, compound alone, 4, 8 and 24 h, vs untreated control): up to 52.7%; ROS formation, combination with OxPt ([7]; SW620, flavonoid + OxPt at IC50 concentrations, all time points, vs control and flavonoid alone): feeble yet significant (p < 0.05) increase in ROS formation; ROS formation, combination with IRI ([7]; SW620, flavonoid + irinotecan at IC50 concentrations, all time points, vs control and flavonoid alone): feeble yet significant (p < 0.05) increase in ROS formation; Decrease in caspase-9 activity ([8]; SW620, 4 h of exposure, vs untreated control): 19.7%; Caspase-9 activity, combined with all the cytostatics [8, 13]: marked induction
6 | – | – | – | – | O=C1[O][Pt]2([NH][C@@H]3CCCC[C@H]3[NH]2)[O]C1=O [OxPt, oxaliplatin] | – | – | IC50 ([1]; SW620, 72 h of exposition): 1.9 µM; IC50 [2]: 1.1 µM
7 | 43.7 µM | 40.4 µM | 47 µM | > 100 µM | COc1cc(O)c(CC=C(C)C)c2c1C(=O)CC(c1ccc(O)cc1)O2 (centres unmarked) [IXH, isoxanthohumol] | marked increase | strong pro-oxidative effect within the entire 24-hour incubation | Caspase-8 activity, combination with 5-FU [3, 11]: significantly increased; Caspase-8 activity, combination with OxPt [3, 11]: significantly increased; Caspase-3/7 activity, combination with IRT [4]: marked increase; Caspase-3/7 activity, combination with OxPt [4]: marked increase; Induction of caspases-3/7 activity ([4]; vs untreated control): 50.5%; Caspase-9 activity, combination with 5-FU [8, 12]: more potent than the respective cytostatics alone

Row | SMILES | IC50 [1, 10] | IC50 ([2]; Homo sapiens) | IC50 [5] | IC50 [6] | Caspase-3/7 activity, combination with 5-FU [4] | ROS production vs control [7] | also measured
8 | CC(C)=CCc1c(O)cc2c(c1O)C(=O)C[C@@H](c1ccc(O)cc1)O2 [6-PN, 6-prenylnaringenin] | 13.7 µM | 14.8 µM | 24 µM | 61.9 µM | – | initially elevated ROS levels in cells and then surprisingly displayed a strong antioxidant effect at the later intervals | –
